# Source: patent publication US8575091B1, “Amylin analogues and pharmaceutical compositions thereof” (Novo Nordisk A/S, priority 2012, dated 2013)
# Numbered stars: 1 amine (or outer) side, 2 acyl side, 3 side chain; on linkers, the order of the positions; unused ones are H or OH. Bridge positions count the residues as written; N and C are the ends. Side chains are listed from the residue outwards. Peptide text beside a SMILES is read from it. * marks the point of attachment. C20 diacid = O=C(O)CCCCCCCCCCCCCCCCCCC(=O)*; γGlu = O=C(O)[C@H](CCC(=O)[*:2])N[*:1]
# Legend:
# human amylin receptor = molecular target: T1, human amylin receptor (Homo sapiens, UniProt O60896+P30988); assay: Assay (V) binding to the human amylin receptor (SPA, 125I-rat amylin)
# T1 construct: expressed in transfected cells
# T1 sequence (P30988 25-474): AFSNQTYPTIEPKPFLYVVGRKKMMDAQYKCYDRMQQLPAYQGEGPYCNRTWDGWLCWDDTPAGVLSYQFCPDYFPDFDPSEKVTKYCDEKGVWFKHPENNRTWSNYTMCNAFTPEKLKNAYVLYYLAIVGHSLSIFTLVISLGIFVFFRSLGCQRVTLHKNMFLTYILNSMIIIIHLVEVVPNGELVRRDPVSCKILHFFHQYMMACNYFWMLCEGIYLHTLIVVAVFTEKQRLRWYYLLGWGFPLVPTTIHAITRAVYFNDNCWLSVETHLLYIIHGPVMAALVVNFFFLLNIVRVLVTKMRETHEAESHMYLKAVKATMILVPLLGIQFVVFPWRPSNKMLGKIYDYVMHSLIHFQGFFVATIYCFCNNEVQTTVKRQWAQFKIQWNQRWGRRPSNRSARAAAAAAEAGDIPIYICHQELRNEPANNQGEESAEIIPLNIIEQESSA
# T1 sequence (O60896 24-148 partner): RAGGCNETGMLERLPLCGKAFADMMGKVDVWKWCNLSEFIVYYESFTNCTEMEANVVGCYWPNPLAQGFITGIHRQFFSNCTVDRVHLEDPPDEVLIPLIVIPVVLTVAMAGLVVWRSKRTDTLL
# Method: The binding assay was performed using scintillation proximity assay (SPA) beads (RPNQ0001) from PerkinElmer and cell membranes from the Amylin 3(a)/CRE-luc cells (as described in Assay (II)) were used. Membranes were prepared in the following way; the cells were rinsed with PBS and incubated with Versene for approximately 5 min before harvesting. The cells were flushed with PBS and the cell-suspension was centrifuged for 5 min at 1000 rpm. […] The resulting pellet was resuspended in buffer 2 and protein concentration was measured (BCA protein Assay, Pierce). The homogenate was kept cold during the whole procedure. The membranes were kept at −80° C. until use. The assay was performed in a 384 well Optiplate (PerkinElmer) in a total volume of 40 ul. Membranes were mixed with SPA beads. Final concentration of membranes 35 ng/μL final and SPA beads was 0.05 mg/well. Test-compounds were dissolved in DMSO and further diluted in assay buffer (50 mM Hepes, pH 7.4, 1 mM CaCl2, 5 mM MgCl2, 0.1% OA and 0.02% Tween20). […] Samples were analyzed on TopCounter™ (Packard). The IC50 was calculated using (one site binding competition analysis) GraphPad Prism5 as a measure of receptor affinity.
# [1] = molecular target: T2, human amylin receptor (amylin 3(a) receptor: human calcitonin receptor + RAMP-3) (Homo sapiens, UniProt O60896+P30988); assay: Assay (II)a functional assay, human amylin receptor (CRE luciferase, BHK cells); format: cell-based
# T2 construct: expressed in transfected cells
# T2 sequence (P30988 25-474): T1 sequence (P30988 25-474)
# T2 sequence (O60896 24-148 partner): T1 sequence (O60896 24-148 partner)
# [2] = Table 6, human functional selectivity (hCTR EC50 / hAmylin-R EC50)
# [3] = Table 6a, human functional selectivity (hCTR EC50 / hAmylin-R EC50), at least 5
# [4] = Table 6i, hCTR funct. EC50 / hAmylin-R funct. EC50
# [5] = Table 6j, hCTR funct. EC50 / hAmylin-R funct. EC50
# [6] = Table 6k, hCTR funct. EC50 / hAmylin-R funct. EC50
SMILES,"IC50 (human amylin receptor; human amylin receptor membranes, SPA, read-out: hAmylin-R bind IC50)","Ratio hCT/hAmylin binding (human amylin receptor; Table 7b, human calcitonin receptor binding IC50 divided by human amylin receptor binding IC50)","Ratio hCT/hAmylin binding (human amylin receptor; Table 7c, human calcitonin receptor binding IC50 divided by human amylin receptor binding IC50)","Ratio hCT/hAmylin binding (human amylin receptor; human binding ratio, included for comparison)","Ratio hCT/hAmylin funct. [1, 2]","Ratio hCT/hAmylin funct. [1, 3]","Ratio hCT/hAmylin funct. [1, 4]","Ratio hCT/hAmylin funct. [1, 5]","Ratio hCT/hAmylin funct. [1, 6]"
CC[C@H](C)[C@H](NC(=O)[C@H](C)NC(=O)CNC(=O)[C@H](Cc1ccccc1)NC(=O)[C@H](CC(N)=O)NC(=O)[C@@H]1CCCN1C(=O)[C@H](CO)NC(=O)[C@H](CO)NC(=O)[C@H](Cc1c[nH]cn1)NC(=O)[C@H](CCCNC(=N)N)NC(=O)[C@H](CC(C)C)NC(=O)[C@H](Cc1ccccc1)NC(=O)[C@H](CC(N)=O)NC(=O)[C@H](C)NC(=O)[C@H](CC(C)C)NC(=O)[C@H](CCCNC(=N)N)NC(=O)[C@H](CCC(N)=O)NC(=O)[C@@H](NC(=O)[C@H](C)NC(=O)[C@@H]1CSSC[C@H](NC(=O)[C@@H](N)CCCCNC(=O)COCCOCCNC(=O)CC[C@H](NC(=O)CCCCCCCCCCCCCCCCCCC(=O)O)C(=O)O)C(=O)N[C@@H](CC(N)=O)C(=O)N[C@@H]([C@@H](C)O)C(=O)N[C@@H](C)C(=O)N[C@@H]([C@@H](C)O)C(=O)N1)[C@@H](C)O)C(=O)N1CCC[C@H]1C(=O)N[C@@H](CO)C(=O)N[C@@H](CO)C(=O)N[C@H](C(=O)N[C@@H](CC(N)=O)C(=O)N[C@H](C(=O)NCC(=O)N[C@@H](CO)C(=O)N[C@@H](CCCNC(=N)N)C(=O)N[C@H](C(=O)N[C@@H](Cc1ccc(O)cc1)C(N)=O)[C@@H](C)O)C(C)C)[C@@H](C)O [Example 38],249 pM,,,,,,,,
CC[C@H](C)[C@H](NC(=O)[C@H](C)NC(=O)CNC(=O)[C@H](Cc1ccccc1)NC(=O)[C@H](CC(N)=O)NC(=O)[C@@H]1CCCN1C(=O)[C@H](CO)NC(=O)[C@H](CO)NC(=O)[C@H](Cc1c[nH]cn1)NC(=O)[C@H](CCCNC(=N)N)NC(=O)[C@H](CC(C)C)NC(=O)[C@H](Cc1ccccc1)NC(=O)[C@H](CC(N)=O)NC(=O)[C@H](C)NC(=O)[C@H](CC(C)C)NC(=O)[C@H](CCCNC(=N)N)NC(=O)[C@H](CCC(N)=O)NC(=O)[C@@H](NC(=O)[C@H](C)NC(=O)[C@@H]1CSSC[C@H](NC(=O)[C@H](CCCCN)NC(=O)CC[C@H](NC(=O)CCCCCCCCCCCCCCCCCCC(=O)O)C(=O)O)C(=O)N[C@@H](CC(N)=O)C(=O)N[C@@H]([C@@H](C)O)C(=O)N[C@@H](C)C(=O)N[C@@H]([C@@H](C)O)C(=O)N1)[C@@H](C)O)C(=O)N1CCC[C@H]1C(=O)N[C@@H](CO)C(=O)N[C@@H](CO)C(=O)N[C@H](C(=O)N[C@@H](CC(N)=O)C(=O)N[C@H](C(=O)NCC(=O)N[C@@H](CCCNC(=N)N)C(=O)N[C@@H](CC(N)=O)C(=O)N[C@H](C(=O)N[C@@H](Cc1ccc(O)cc1)C(N)=O)[C@@H](C)O)C(C)C)[C@@H](C)O [Example 39] ({C20 diacid-γGlu}-KCNTATCATQRLANFLRHSSPNFGAIPSSTNVGRNTY-NH2; disulfide 2-7),,29.0,29.0,29.0,,,,,

# Continued, values first:
"IC50 (human amylin receptor; human amylin receptor membranes, SPA, read-out: hAmylin-R bind IC50)","Ratio hCT/hAmylin binding (human amylin receptor; Table 7b, human calcitonin receptor binding IC50 divided by human amylin receptor binding IC50)","Ratio hCT/hAmylin binding (human amylin receptor; Table 7c, human calcitonin receptor binding IC50 divided by human amylin receptor binding IC50)","Ratio hCT/hAmylin binding (human amylin receptor; human binding ratio, included for comparison)","Ratio hCT/hAmylin funct. [1, 2]","Ratio hCT/hAmylin funct. [1, 3]","Ratio hCT/hAmylin funct. [1, 4]","Ratio hCT/hAmylin funct. [1, 5]","Ratio hCT/hAmylin funct. [1, 6]",SMILES
,,,,6.3,6.3,6.3,6.3,6.3,CC[C@H](C)[C@H](NC(=O)[C@H](C)NC(=O)CNC(=O)[C@H](Cc1ccccc1)NC(=O)[C@H](CC(N)=O)NC(=O)[C@@H]1CCCN1C(=O)[C@H](CO)NC(=O)[C@H](CO)NC(=O)[C@H](Cc1c[nH]cn1)NC(=O)[C@H](CCCNC(=N)N)NC(=O)[C@H](CC(C)C)NC(=O)[C@H](Cc1ccccc1)NC(=O)[C@H](CCC(=O)O)NC(=O)[C@H](C)NC(=O)[C@H](CC(C)C)NC(=O)[C@H](CCCNC(=N)N)NC(=O)[C@H](CCC(N)=O)NC(=O)[C@@H](NC(=O)[C@H](C)NC(=O)[C@@H]1CSSC[C@H](NC(=O)[C@@H](N)CCCCNC(=O)CC[C@H](NC(=O)CCCCCCCCCCCCCCCCCCC(=O)O)C(=O)O)C(=O)N[C@@H](CC(N)=O)C(=O)N[C@@H]([C@@H](C)O)C(=O)N[C@@H](C)C(=O)N[C@@H]([C@@H](C)O)C(=O)N1)[C@@H](C)O)C(=O)N1CCC[C@H]1C(=O)N[C@@H](CO)C(=O)N[C@@H](CO)C(=O)N[C@H](C(=O)N[C@@H](CC(N)=O)C(=O)N[C@H](C(=O)NCC(=O)N[C@@H](Cc1c[nH]cn1)C(=O)N[C@@H](CCC(=O)O)C(=O)N[C@H](C(=O)N[C@@H](Cc1ccc(O)cc1)C(N)=O)[C@@H](C)O)C(C)C)[C@@H](C)O [Example 107] (H-K([γGlu-C20 diacid])CNTATCATQRLAEFLRHSSPNFGAIPSSTNVGHETY-NH2; disulfide 2-7 (inferred); N-terminus and C-terminus assumed)
,,,,6.5,6.5,6.5,6.5,6.5,CC[C@H](C)[C@H](NC(=O)[C@H](C)NC(=O)CNC(=O)[C@H](Cc1ccccc1)NC(=O)[C@H](CC(N)=O)NC(=O)[C@@H]1CCCN1C(=O)[C@H](CO)NC(=O)[C@H](CO)NC(=O)[C@H](Cc1c[nH]cn1)NC(=O)[C@H](CCCNC(=N)N)NC(=O)[C@H](CC(C)C)NC(=O)[C@H](Cc1ccccc1)NC(=O)[C@H](CCC(=O)O)NC(=O)[C@H](C)NC(=O)[C@H](CC(C)C)NC(=O)[C@H](CCCNC(=N)N)NC(=O)[C@H](CCC(N)=O)NC(=O)[C@@H](NC(=O)[C@H](C)NC(=O)[C@@H]1CSSC[C@H](NC(=O)[C@@H](N)CCCCNC(=O)CC[C@H](NC(=O)CCCCCCCCCCCCCCCCCCC(=O)O)C(=O)O)C(=O)N[C@@H](CC(N)=O)C(=O)N[C@@H]([C@@H](C)O)C(=O)N[C@@H](C)C(=O)N[C@@H]([C@@H](C)O)C(=O)N1)[C@@H](C)O)C(=O)N1CCC[C@H]1C(=O)N[C@@H](CO)C(=O)N[C@@H](CO)C(=O)N[C@H](C(=O)N[C@@H](CC(N)=O)C(=O)N[C@H](C(=O)NCC(=O)N[C@@H](CCCNC(=N)N)C(=O)N[C@@H](CCC(=O)O)C(=O)N[C@H](C(=O)N[C@@H](Cc1ccc(O)cc1)C(N)=O)[C@@H](C)O)C(C)C)[C@@H](C)O [Example 108] (H-K([γGlu-C20 diacid])CNTATCATQRLAEFLRHSSPNFGAIPSSTNVGRETY-NH2; disulfide 2-7 (inferred); N-terminus and C-terminus assumed)
,,,,8.1,8.1,,8.1,8.1,CC[C@H](C)[C@H](NC(=O)[C@H](C)NC(=O)CNC(=O)[C@H](Cc1ccccc1)NC(=O)[C@H](CC(N)=O)NC(=O)[C@@H]1CCCN1C(=O)[C@H](CO)NC(=O)[C@H](CO)NC(=O)[C@H](Cc1c[nH]cn1)NC(=O)[C@H](CCCNC(=N)N)NC(=O)[C@H](CC(C)C)NC(=O)[C@H](Cc1ccccc1)NC(=O)[C@H](CO)NC(=O)[C@H](C)NC(=O)[C@H](CC(C)C)NC(=O)[C@H](CCCNC(=N)N)NC(=O)[C@H](CCC(N)=O)NC(=O)[C@@H](NC(=O)[C@H](C)NC(=O)[C@@H]1CSSC[C@H](NC(=O)[C@@H](N)CCCCNC(=O)CC[C@H](NC(=O)CC[C@H](NC(=O)CCCCCCCCCCCCCCCCCCC(=O)O)C(=O)O)C(=O)O)C(=O)N[C@@H](CC(N)=O)C(=O)N[C@@H]([C@@H](C)O)C(=O)N[C@@H](C)C(=O)N[C@@H]([C@@H](C)O)C(=O)N1)[C@@H](C)O)C(=O)N1CCC[C@H]1C(=O)N[C@@H](CO)C(=O)N[C@@H](CO)C(=O)N[C@H](C(=O)N[C@@H](CC(N)=O)C(=O)N[C@H](C(=O)NCC(=O)N1CCC[C@H]1C(=O)N[C@@H](CCC(=O)O)C(=O)N[C@H](C(=O)N[C@@H](Cc1ccc(O)cc1)C(N)=O)[C@@H](C)O)C(C)C)[C@@H](C)O [Example 120] (H-K([γGlu-γGlu-C20 diacid])CNTATCATQRLASFLRHSSPNFGAIPSSTNVGPETY-NH2; disulfide 2-7 (inferred); N-terminus and C-terminus assumed)
